The structures appear in SMILES notation.

The subject of data set [1] is Kasumi-1 cell subcutaneous heterograft tumor. In words: In-vivo efficacy in Kasumi-1 cell subcutaneous heterograft tumor model. The following applies: for weight of the mice after administration / tolerance of the tested animals: Kasumi-1 xenograft mice; for weight of the mice after administration: FIG. 3; for tolerance of the tested animals: qd p.o. 20 days; for TGI: Kasumi-1 xenograft, qd, p.o., 20 days. On the procedure: • RPMI 1640 culture medium containing 20% fetal bovine serum (FBS), 37° C., 5% CO2.
• Solvent: 0.5% methylcellulose aqueous solution; • Tested drug: compounds 16 and 36.
CB17 SCID mice, female, 6-8 weeks, weight about 18-22 grams, and each mouse was subcutaneously inoculated with 0.1 mL (1×10^7 cells+matrigel) of Kasumi-1 cells on the right side. When an average volume of tumors reached 100-200 cubic millimeters, group administration was performed, see the table below (Table 12) for administration dosages and methods. The tumor volume was measured twice a week, the weights of the mice as well as lengths and widths of tumors were recorded in each time of measurement, and the tumor volume=length×width×width/2 mm^3. When the average tumor volume of a solvent group grew to 3000 cubic millimeters or above, administration was ended, each group of mice was killed and dissected to take out tumor lumps, the tumor weight of each mouse was weighed and the tumor volume was measured, and an average tumor volume difference between a tested compound group and the solvent group was obtained via comparison. The tumor suppression effects of the compounds were evaluated with TGI (%), which could reflect a tumor growth inhibition rate.
Calculation of TGI (%):TGI (%)=[1−(current average tumor volume of compounds−average tumor volume at the beginning of compounds)/(current average tumor volume of solvent group−average tumor volume at the beginning of solvent group)]×100%

Data set [2] can be described thus: Pharmacokinetics of oral and intravenous administration of rats. Format: in vivo. The following applies: male, rat, plasma, SD rats; for bioavailability: oral, p.o. 5.0 mg/kg vs i.v. 5.0 mg/kg, read-out: F (bioavailability). Here is the method: With SD rats as tested animals, blood drug concentrations of the compounds of the present application in plasma at different moments after oral administration and intravenous administration to the rats were determined using an LC-MS/MS method, pharmacokinetic parameters and bioavailabilities of the compounds of the present application in the rats were obtained, and pharmacokinetic characteristics of the compounds were studied.
• SD rats, male, weight 180-220 g, 3 rats per group. The animals were fed in an animal house after being purchased, an adaptation period was at least 3 days, and they were used for tests after passing quarantine.
3.2. Solvent: p.o.: 0.5% Sodium Methylcellulose Aqueous Solution
• i.v.: 5% DMSO+10% Solutol+85% Saline
According to Table 6, each group of rats was given the corresponding tested drugs or positive drugs by gavage, before administration, and 5 min, 15 min, 30 min, 1 h, 2 h, 4 h, 6 h, 8 h, 10 h and 24 h after administration, a fixed volume of blood was collected through eye sockets and placed in an EDTA-K2 anticoagulant tube, centrifuging was carried out at 8000 rpm for 1 min to separate plasma into a centrifuge tube, and the plasma was frozen in a −20° C. refrigerator.
(§1) The plasma at each time point stored at −20° C. was taken out, then acetonitrile was added, after whirling at 1500 revolutions for 2 min, centrifuging was carried out for 15 min (3500 r/min), and a fixed volume of solution supernatant was taken for LC-MS/MS analysis.
(§2) Non-compartment model fitting was carried out on pharmacokinetic behaviors of the tested compounds, and DAS3.31 software was adopted to calculate main pharmacokinetic parameters (T1/2, Tmax, Cmax, AUClast, etc.).

The nature of data set [3]: Pharmacokinetics of oral administration of mice under different solvent conditions. The following applies: male, Balb/c, mouse, plasma, 5 mg/kg, p.o. 5.0 mg/kg. In kind it is in vivo. Here is the method:
With Balb/c mice as tested animals, blood drug concentrations of the compounds of the present application in plasma at different moments after administration of the mice under different solvent conditions were determined using an LC-MS/MS method. Pharmacokinetic parameters of the compounds of the present application in the mice under the different solvent conditions were obtained, and pharmacokinetic characteristics of the compounds were studied.
• Balb/c mice, male, weight 18-22 g, 6 mice per group. The animals were fed in an animal house after being purchased, an adaptation period was at least 3 days, and they were used for tests after passing quarantine.
According to Table 8, each group of mice was given the corresponding tested drugs or positive drugs by gavage, before administration, and 15 min, 30 min, 1 h, 2 h, 4 h, 6 h, 8 h, 10 h and 24 h after administration, a fixed volume of blood was collected through eye sockets and placed in an EDTA-K2 anticoagulant tube, centrifuging was carried out at 8000 rpm for 1 min to separate plasma into a centrifuge tube, and the plasma was frozen in a −20° C. refrigerator.
as §1, §2

The test system of the next data set is Kasumi-1 cells. In words: Kasumi-1 cell proliferation inhibition test (Celltiter GLO). In kind it is cell-based. The following applies: Homo sapiens, 168 h, Kasumi-1, 7 days culture. Here is the method: Research had confirmed that LSD1 played a crucial role in the occurrence process of various types of cancers, including small cell lung cancer (SCLC) and acute myeloid leukemia (AML). Therefore, a human acute myeloid leukemia (Kasumi-1) cell line was used to determine the ATP content in cells at different drug concentrations using a Celltiter GLO assay kit, the cell activity was reflected by luminescence intensity, and IC50 values of different compounds on Kasumi-1 cells were calculated using inhibition rates. The inhibitory effects of the compounds in the present application on the proliferation of Kasumi-1 cells were studied to evaluate the anti-tumor efficacy of the tested compounds at the cellular level.
• Day 1 Cells were seeded into the 384-well cell culture plate and placed in a 37° C. 5% CO2 cell incubator to be cultured overnight. • Day 0 The compound to be tested was prepared into a 10 mM mother liquid using DMSO, starting from […], diluted by 3 folds, with 10 concentration points and double duplicate wells. A diluted compound was added into the 384-well cell culture plate and placed in a 37° C. 5% CO2 cell incubator to be cultured for 7 days. The concentration of the DMSO in a cell culture system was 0.1 vol %. • Day 7 Celltiter GLO was added into the 384-well cell culture plate according to a volume ratio of culture system:Celltiter GLO=1:1, light-shielded oscillation was carried out on a plate oscillator for 3 min, then the cell culture plate was placed at the room temperature for 30 min with light shielded, and the plate was read using a multifunctional microplate reader chemical light emitting module.
An inhibition rate was calculated by utilizing luminescence intensity of the above DMSO group (with DMSO added), test group (with the tested compound or a positive control solution added) and blank group (not treating cells), and a calculation formula was as follows: […]
Using a logarithm of the concentration as an X axis and the percentage inhibition rate as a Y axis, a dose-response curve was fitted using a formula log(inhibitor) vs. response-Variable slope (Four parameters) of analysis software Graphpad Prism 8 to obtain the IC50 value of each compound on Kasumi-1 proliferation inhibition activity.

[4] abbreviates: iv, i.v. 5.0 mg/kg, 5% DMSO+10% Solutol+85% Saline.
[5] abbreviates: po, p.o. 5.0 mg/kg, 0.5% sodium methylcellulose aqueous solution.
[6] abbreviates: solvent 0.5% sodium methylcellulose aqueous solution.
Where [7] appears, read: solvent 5% DMSO + 10% Solutol + 85% Saline.

As usually defined, the TGI is how far tumour growth fell short of that in controls. A lower TGI goes with little slowing of growth. As for `CC(C)(O)Cn1nc(F)c2cc(-c3c(C#N)cc(N4CCC(N)CC4)nc3-c3ccc(C#N)c(F)c3)c(F)cc21` [Compound 36, 6-(4-aminopiperid-1-yl)-2-(4-cyano-3-fluorophenyl)-3-(3,6-difluoro-1-(2-hydroxyl-2-methylpropyl)-1H-indazol-5-yl)isonicotinonitrile], in data set [1], the “weight of the mice after administration” value is “does not decrease” and the “tolerance of the tested animals” value is listed as “good tolerance”. The molecule also showed a TGI in data set [1] (5 mg/Kg) of 84.87%.
Broadly, the AUC(0-t) is the area under the concentration-time curve up to a stated or last time point. The Cmax is the highest concentration seen after dosing. The term Tmax denotes the time from dosing to the highest level. A word on the half-life: it is the time in which the quantity being followed falls by half. In general, bioavailability refers to dose-corrected exposure relative to a reference, in per cent. One may read the IC50 as the concentration needed to halve the response being measured. With `CC(C)(O)Cn1ncc2cc(-c3c(C#N)cc(N4CCC(N)CC4)nc3-c3ccc(C#N)c(F)c3)c(F)cc21` [Compound 16, 6-(4-aminopiperid-1-yl)-2-(4-cyano-3-fluorophenyl)-3-(6-fluoro-1-(2-hydroxyl-2-methylpropyl)-1H-indazol-5-yl)isonicotinonitrile], in data set [2] (setting [4]), the AUC(0-t) was determined as 1490 ± 157 ng·h/mL, the peak level (Cmax) was 765 ± 181 ng/mL, the Tmax came out at 0.08 h and the half-life was 5.61 ± 1.29 h. For the same molecule, the bioavailability in data set [2] stood at 46.2%. Further, in data set [2] (setting [5]), the exposure AUC(0-t) was 693 ± 248 ng·h/mL, the peak level (Cmax) was 75.2 ± 20.3 ng/mL, the time to peak (Tmax) was 4 h and the half-life was 4.73 ± 0.22 h. Also, in data set [1], the “weight of the mice after administration” value is “does not decrease” and the “tolerance of the tested animals” value was “good tolerance”. This molecule came in with a tumour growth inhibition (TGI) in data set [1] (3.5 mg/Kg) of 78.28%. For the same molecule, in data set [1] (5 mg/Kg), the TGI worked out at 86.13%. Also, in data set [3] (setting [6]), the exposure AUC(0-t) came to 3220 ± 1510 ng·h/mL, the highest concentration (Cmax) was 895 ± 499 ng/mL, the Tmax was found to be 3.33 ± 1.15 h and the half-life was 3.99 ± 0.59 h. Besides, in data set [3] (setting [7]), the area under the curve AUC(0-t) is 2420 ± 123 ng·h/mL, the Cmax was found to be 612 ± 111 ng/mL, the Tmax came out at 2.67 ± 1.15 h and the half-life was 5.52 ± 0.67 h. Moreover, the IC50 with Kasumi-1 cells is 0.59 nM.
As to `COc1ccc(-c2c(-c3ccc(C#N)c(F)c3)nc(N3CCC(N)CC3)n(C)c2=O)cc1F` [CC-90011, reference compound], in data set [2] (setting [4]), the AUC(0-t) was found to be 906 ± 194 ng·h/mL, the highest concentration (Cmax) came out at 895 ± 90.4 ng/mL, the time to peak (Tmax) was 0.08 h and the half-life is 3.32 ± 0.72 h. The bioavailability in data set [2] worked out at 32.1%. In data set [2] (setting [5]), the AUC(0-t) came to 299 ± 178 ng·h/mL, the Cmax was 49.2 ± 8.71 ng/mL, the time to peak (Tmax) stood at 2.67 ± 1.15 h and the half-life was 4.15 ± 0.7 h. Also, in data set [3] (setting [6]), the AUC(0-t) turned out to be 965 ± 120 ng·h/mL, the Tmax came out at 3.33 ± 1.15 h and the half-life was 5.01 ± 0.04 h. Also, in data set [3] (setting [7]), the AUC(0-t) is 871 ± 270 ng·h/mL, the maximum concentration (Cmax) worked out at 173 ± 50.9 ng/mL, the Tmax was determined as 1 h and the half-life was 2.44 ± 0.34 h. In the data set with Kasumi-1 cells, the IC50 was 3.18 nM.

(Values after US20250163016A1, “PYRIDINE DERIVATIVE, PREPARATION METHOD THEREFOR AND USE THEREOF” (CHENGDU EASTON BIOPHARMACEUTICALS CO., LTD., priority 2022, published 2025).)
